The values that follow are results of earlier work, collected in publication PMC8198792, “Prediction of Anticancer Peptides with High Efficacy and Low Toxicity by Hybrid Model Based on 3D Structure of Peptides” (International Journal of Molecular Sciences, 2021).

This data set has as its system cancer cell lines. Further details: method as in 6 sources, ref CancerPPD [45] and SATPdb ||| ref CancerPPD/SATPdb ||| ref CancerPPD, SATPdb, Swissprot (PDB) ||| ref CancerPPD/SATPdb/Swissprot(PDB) ||| ref CancerPPD / SATPdb ||| ... The conditions noted are these: cited from earlier work. An excerpt:
Supplement ijms-22-05630-s001.zip/ACPs(seguence).xlsx, sheet "D1" | column: Activity || Supplement ijms-22-05630-s001.zip/ACPs(seguence).xlsx, sheet "D2" | column: Activity || Supplement ijms-22-05630-s001.zip/ACPs(seguence).xlsx, sheet "D3" | column: Activity || (+ 2 further places)

Where [1] appears, read: ACPs dataset D1, label 1 = ACP, 0 = non-ACP (non-anticancer AMPs from SATPdb), ref CancerPPD/SATPdb.
[2] abbreviates: ACPs dataset D4 (sheet "D4"), label 1 = ACP (CancerPPD ID), 0 = non-ACP (non-anticancer AMP, SATPdb ID), ref CancerPPD [45] and SATPdb.
Setting [3] is: ACPs dataset D1, 1 = ACP (positive), 0 = non-ACP (negative), label taken from databases, ref CancerPPD [45] and SATPdb.
[4] abbreviates: ACPs dataset D4 (sheet "D4"), label 1 = ACP, experimentally validated ACPs, ref CancerPPD [45] and SATPdb.
[5] abbreviates: ACPs dataset D5 (sheet "D5"), label 1 = ACP (positive set), sequences with CancerPPD/SATPdb ID, ref CancerPPD, SATPdb.
[6] abbreviates: ACPs dataset sheet D2, 1 = ACP (CancerPPD/SATPdb ID), 0 = non-ACP (Swissprot/PDB ID), ref CancerPPD, SATPdb, Swissprot (PDB).
Where [7] appears, read: ACPs dataset D2 (supplement ACPs(seguence).xlsx, sheet D2), dataset label 1/0 (ACP / non-ACP), entries identified by Swissprot(PDB ID), ref CancerPPD/SATPdb/Swissprot(PDB).
Where [8] appears, read: ACPs dataset D5, sheet "D5", label 1 = ACP, 0 = non-ACP, ref CancerPPD [45] and SATPdb.
The mark [9] stands for this setting: ACPs dataset D4 (sheet "D4"), label 1 = ACP, 0 = non-ACP, ref CancerPPD / SATPdb.
[10] abbreviates: ACPs dataset D5 (sheet "D5"), label 1 = ACP (positive set), 0 = non-ACP (negative set), ref CancerPPD [45] and SATPdb.
Setting [11] is: ACPs dataset D3 (supplement sheet "D3"), 1 = ACP, 0 = non-ACP, ref CancerPPD [45] and SATPdb.
[12] abbreviates: ACPs dataset D3 (sheet "D3"), label 1 = ACP, 0 = non-ACP, ref CancerPPD/SATPdb.

Read-outs that look alike come from different tables or passages of the source.

For EDGLHPRLCSC [satpdb11408], the Activity by setting is: under setting [1], 0; under setting [2], 0.

“EDMNQKLFDLRGKFKRPPLRRVRMSADAML [satpdb19871]”: the Activity under setting [3] is reported as 1, the Activity under setting [4] is on record as 1, the Activity under setting [5] was 1 and the Activity under setting [6] is on record as 1.

As for “EECGPNEVFNTCGSACAPTCAQPKTRICTMQCRIGCQCQEGFLRNGEGACVLPENC [1CCV NMR - A 1-56]”, the Activity is recorded as 0 under setting [7] and 0 under setting [8].

In the case of “EGVRNHVTCRINRGFCVPIRCPGRTRQIGTCFGPRIKCCRSW [satpdb13124]”, the Activity by setting is: under setting [1], 0; under setting [9], 0.

For EIPSCESSASPDQSDSSVPPEE [satpdb17950], the Activity reads like this: under setting [3], 1; under setting [4], 1; under setting [5], 1; under setting [6], 1.

In the case of “ENFAGGCATG YLRTADGRCK PTF [1HRL NMR - A 1-23]”, the Activity reads like this: under setting [10], 0; under setting [6], 0.

Consider “ERRCPRILKQ CKRDSDCPGE CICMAHGFCG [1EWU model - I 1-30]”, for which the Activity is given as 0 under setting [10] and 0 under setting [6].

As to “ESVFSKIGNAVGPAAYWILKGLGNMSDVNQADRINRKKH [satpdb11882]”, the Activity is 0 under setting [1] and 0 under setting [2].

ETFADWWKLLAE [compound 5061]: the Activity under setting [3] is recorded as 1, the Activity under setting [4] is 1, the Activity under setting [5] is on record as 1 and the Activity under setting [6] was 1.

In the case of “EYHLMNGANGYLTRVNGKTVYRVTKDPVSAVFGVISNCWGSAGAGFGPQH [satpdb10230]”, the Activity is listed as 0 under setting [3] and 0 under setting [2].

With FAKKFAKKFKKFAKKFAKFAFAF [compound 1910], the Activity under setting [11] is on record as 1, the Activity under setting [4] is given as 1 and the Activity under setting [5] is given as 1.

With FAKKLAKKLKKLAKKLAKLAKKL [compound 1914], the Activity is, setting by setting: under setting [11], 1; under setting [4], 1; under setting [5], 1.

Turning to FAKKLAKLAKKLAKLAL [compound 1787], the Activity is, setting by setting: under setting [11], 1; under setting [4], 1; under setting [5], 1.

Consider FAKKLAKLAKKLLAL [compound 1790], for which the Activity is reported as 1 under setting [11], 1 under setting [4] and 1 under setting [5].

Turning to FAKLA [compound 1859], the Activity under setting [11] was 1, the Activity under setting [4] is given as 1 and the Activity under setting [5] was 1.

As for “FDVNSHTTPCGPVTCSGAQMCEVDKCVCSDLHCKVKCEHGFKKDDNGCEYACICADAPQ [1EJA X-ray 2.70 B 1-59]”, the Activity was 0 under setting [7] and 0 under setting [8].

Take FFGTALKIAANVLPTAICKILKKC [satpdb13355]: the Activity is 0 under setting [1] and 0 under setting [9].

Take “FFGWLIKGAIHAGKAIHGLIHRRRH [compound 4436]”: the Activity reads like this: under setting [3], 1; under setting [4], 1; under setting [5], 1; under setting [6], 1.

As to FFHHIFRGIVHVGKTIHRLVTG [compound 4437], the Activity is, setting by setting: under setting [3], 1; under setting [4], 1; under setting [5], 1; under setting [6], 1.

As for FFPIVGKLLFGLL [satpdb13027], the Activity is, setting by setting: under setting [12], 0; under setting [9], 0; under setting [8], 0.

Turning to “FHVPDDRPCINPGRCPLVPDATCTFVCKAADNDFGYECQHVWTFEGQRVGCYA [5MRV X-ray 1.85,C,1-53]”, the Activity is, setting by setting: under setting [7], 0; under setting [8], 0.

As to “FIHHIFRGIV HAGRSIGRFL TG [2MCW NMR - A 1-22]”, the Activity runs as follows: under setting [10], 0; under setting [6], 0.

Regarding FISAIASFLGKFL [satpdb11448], the Activity is reported as 0 under setting [1] and 0 under setting [2].

For FKCRRWQWRMKKLGA [compound 1111], the Activity is reported as 1 under setting [11], 1 under setting [4] and 1 under setting [5].

With FKCRRWQWRMKKLGAPSITCVR [compound 1352], the Activity reads like this: under setting [3], 1; under setting [4], 1; under setting [5], 1; under setting [6], 1.

For FKIPPIVKDTLKKFFKGGIAGVMGQ [satpdb10550], the Activity was 0 under setting [3] and 0 under setting [2].

Regarding FKLFKKIPKFLHLAKKF [compound 1124], the Activity under setting [11] is 1, the Activity under setting [4] is reported as 1 and the Activity under setting [5] was 1.

Consider FKRiVQRiKDFlRNLV [compound 1530], for which the Activity under setting [11] is 1, the Activity under setting [4] is 1 and the Activity under setting [5] is listed as 1.

For the substance FLGALAKIISGIF [satpdb11200], the Activity runs as follows: under setting [3], 0; under setting [2], 0.

As to FLGALFHALSKLL [compound 3266], the Activity was 1 under setting [3], 1 under setting [4], 1 under setting [5] and 1 under setting [6].

FLGALLGPLMNLLQ [satpdb14038]: the Activity under setting [12] is listed as 0, the Activity under setting [9] is listed as 0 and the Activity under setting [8] is on record as 0.

For FLGGLMKAFPAIICAVTKKC [satpdb13214], the Activity reads like this: under setting [1], 0; under setting [9], 0.

On to FLGMIPGLIGGLISAFK [compound 3125], for which the Activity under setting [11] is listed as 1, the Activity under setting [4] is recorded as 1 and the Activity under setting [5] is 1.

As to FLGMIPKLIKKLIKAFK [compound 3135], the Activity by setting is: under setting [11], 1; under setting [4], 1; under setting [5], 1.

Turning to FLGWLFKWAWK [compound 1722], the Activity was 1 under setting [11], 1 under setting [4] and 1 under setting [5].

On to FLKDHRISTFKNWPF [satpdb15356], for which the Activity is 1 under setting [3], 1 under setting [4], 1 under setting [5] and 1 under setting [6].

As to FLKLLKKLAAKLF [compound 1005], the Activity under setting [3] is 1, the Activity under setting [4] is listed as 1, the Activity under setting [5] is given as 1 and the Activity under setting [6] is 1.

Consider FLKWLFKWAKK [compound 1716], for which the Activity by setting is: under setting [11], 1; under setting [4], 1; under setting [5], 1.

On to FLPAIAGMAAKFLPKIFCAISKKC [satpdb12699], for which the Activity reads like this: under setting [1], 0; under setting [9], 0.

As to “FLPAIVGAAAKFLPKIFCAISKKC [compound 4356]”, the Activity is, setting by setting: under setting [3], 1; under setting [4], 1; under setting [5], 1; under setting [6], 1.

On to FLPAVLRVAAQVVPTVFCAISKKC [satpdb11368], for which the Activity is given as 0 under setting [3] and 0 under setting [2].

For the substance FLPFIARLAAKVFPSIICSVTKKC [satpdb10560], the Activity under setting [3] is recorded as 0 and the Activity under setting [2] is given as 0.

Take “FLPIIAGAAAKVVEKIFCAISKKC [compound 4357]”: the Activity is, setting by setting: under setting [3], 1; under setting [4], 1; under setting [5], 1; under setting [6], 1.

In the case of “FLPIIAGIAAKFLPKIFCTISKKC [compound 4359]”, the Activity under setting [3] is reported as 1, the Activity under setting [4] is recorded as 1, the Activity under setting [5] is 1 and the Activity under setting [6] is 1.

Consider FLPIIASVAANVFSKIFCAISKKC [satpdb10458], for which the Activity runs as follows: under setting [3], 0; under setting [2], 0.

For FLPIIGQLLSGLL [satpdb10701], the Activity reads like this: under setting [11], 0; under setting [9], 0; under setting [8], 0.

Turning to FLPIVGRLISGLL [satpdb10939], the Activity runs as follows: under setting [11], 0; under setting [9], 0; under setting [8], 0.

Regarding “FLPKTLRKFFCRIRGGRCAVLNCLGKEEQIGRCSNSGRKCCRKKK [satpdb12338]”, the Activity by setting is: under setting [1], 0; under setting [2], 0.

Regarding FLPLIASVAANLAPKIICKITKTC [satpdb12152], the Activity by setting is: under setting [1], 0; under setting [2], 0.
